Measurements reported in US20230265043A1, “CRYSTALLINE FORM OF PHENTERMINE HYDROCHLORIDE AND PROCESS FOR OBTAINING SAME” (priority 2020, published 2023).
Counter-ions that a name gives are not always drawn.

Experiments:
Format in all cases: physicochemical
[1] = dynamic water vapor adsorption (DVS) at 60%, 80% and 95% relative humidity; settings: for gain by mass at 80% relative humidity: 25° C., equilibrium reached; for hygroscopicity classification according to the British Pharmacopoeia, Ed. 2016: based on mass gain at 80% relative humidity
Excerpt: (§1) In all humidity conditions, the equilibrium criterion of mass variation of less than 0.001% was reached.
FIG. 13 presents dynamic water vapor sorption experiments under different humidity conditions for the anhydrous and monohydrate forms of phentermine hydrochloride. It is noted that in all analyzed humidity conditions, the system reached equilibrium, with the monohydrate form being much less hygroscopic than the anhydrous form. Phentermine hydrochloride in anhydrous form has a gain of about 7.5% by mass at 80% relative humidity, being classified as hygroscopic according to the British Pharmacopoeia (BF) (British Pharmacopoeia, Ed. 2016), which can cause dosing problems if the active is manipulated in high humidity conditions. In addition, the fact that the anhydrous form is hygroscopic allows its conversion to the monohydrate form in case of exposure to excessive amounts of water.

[2] = accelerated stability study in oven, 50° C. and 75% relative humidity, 30 days
Protocol: Phentermine hydrochloride monohydrate's stability was tested by keeping 25 g of sample in an oven under conditions of 50° C. and 75% relative humidity for 30 days, as recommended by the FDA guide (Food and Drug Administration, Guidance for Industry Q1A(R2) Stability Testing of New Drug Substances and Products, November 2003 rev.2).

[3] = dynamic water vapor desorption, relative humidity 95% to 0% at 25° C.; settings: desorption 95% to 0% RH in steps of 5%, 25° C. (FIG. 9)
Protocol: as §1
(§2) The Differential Scanning calorimetry (DSC) experiment (FIG. 8) is performed under an inert atmosphere using nitrogen flow. Therefore, for phentermine hydrochloride monohydrate, such flow favors water loss, and the experiment will have underestimated results.

[4] = DSC heating and X-ray diffraction after heating (conversion of monohydrate to anhydrous form); settings: 10° C./min, nitrogen flow, XRD after heating at 60° C.
Protocol: (B), when it converts to anhydrous form.
as §2
Furthermore, the melting of the anhydrous form occurs around 200° C. in which the active also starts the decomposition process.

Compound | times less hygroscopic than the anhydrous form ([1]; 80% relative humidity) [times] | gain by mass at 80% relative humidity ([1]; 80% relative humidity) | hygroscopicity classification according to the British Pharmacopoeia, Ed. 2016 [1] | polymorphic conversion after accelerated stability test (infrared absorption and X-ray diffraction) [2] | relative humidity in which the form is stable [3] | temperature of conversion to the anhydrous form on heating [4]
CC(C)(N)Cc1ccccc1 [Phentermine hydrochloride monohydrate, phentermine hydrochloride monohydrate] | 10 | about 0.75 % by mass | slightly hygroscopic | no polymorphic conversion | higher than 50% | above 50 °C
CC(C)(N)Cc1ccccc1.Cl [2-methyl-1-phenylpropan-2-amine, reference compound] |  | about 7.5 % by mass | hygroscopic |  |  | 
